The record followed here is US9029542B2 (priority 2011, dated 2015).

SMILES strings stand for the structures. Read-outs that look alike come from different tables or passages of the source.

Holding throughout (assay type): in vivo
One test concerns Eclipta prostrata. The experiment in a line: whole plant or invertebrate. Conditions: for pest or weed control at 150 g/ha: Eclipta prostrata, 600 h, read-out: weed clearing activity, Eclipta prostrata Postemergence.
For a further test, the system named is Radish. The experiment in a line: whole plant or invertebrate. Conditions: Raphanus sativus.
A further test deals with cockspur grass. The experiment in a line: whole plant or invertebrate. Conditions: Echinochloa crus-galli.
The test system of another test is Cucumber. Kind of test: whole plant or invertebrate. Conditions: Cucumis sativus.
Another test concerns Wheat. Kind of test: whole plant or invertebrate. Conditions: Triticum aestivum.
The next test has as its system Amaranthus retroflexus. The experiment in a line: whole plant or invertebrate. Conditions: Amaranthus retroflexus, 600 h, read-out: weed clearing activity, Amaranthus retroflexus Postemergence.
The next test has as its system Abutilon theophrasti. Kind of test: whole plant or invertebrate. The settings on record: Abutilon theophrasti, 600 h, read-out: Postemergence weed clearing activity, Abutilon theophrasti.
A further test deals with Capsella bursa-pastoris. The experiment in a line: whole plant or invertebrate. The settings on record: 600 h, read-out: weed clearing activity, Capsella bursa-pastoris Postemergence.
A further test deals with Sorghum. The experiment in a line: whole plant or invertebrate.
In another test the test system is rape. Kind of test: animal or person.
The mark [1] stands for this setting: read-out: inhibitory activity, Radish Root.
Setting [2] is: read-out: inhibitory activity, Radish Stem.
Where [3] appears, read: read-out: inhibitory activity, Cockspur grass Root.
[4] abbreviates: read-out: inhibitory activity, Cockspur grass Stem.
The mark [5] stands for this setting: read-out: inhibitory activity, Cucumber Root.
Where [6] appears, read: read-out: inhibitory activity, Cucumber Stem.
Setting [7] is: read-out: inhibitory activity, Wheat Root.
The mark [8] stands for this setting: read-out: inhibitory activity, Wheat Stem.
Where [9] appears, read: read-out: inhibitory activity, Sorghum Root.
The mark [10] stands for this setting: read-out: inhibitory activity, Sorghum Stem.
The mark [11] stands for this setting: read-out: inhibitory activity, Rape Root.
Setting [12] is: read-out: inhibitory activity, Rape Stem.

As to `Cc1cc(OCC(=O)OC(C)P2(=O)OCC(C)(C)CO2)ccc1Cl` (stereo not shown) [Compound 32, 2-(3-methyl-4-chlorophenoxyethylacyloxy)(methyl)methyl-5,5-dimethyl-1,3,2-dioxaphosphorinan-2-one phosphonate], the pest or weed control at 150 g/ha in the test with Eclipta prostrata turned out to be 60%; with Amaranthus retroflexus, 60%; in the test with Abutilon theophrasti, 70%; in the test with Capsella bursa-pastoris, 70%. The inhibition at 100 µg/mL with Radish (setting [1]) is 90%; with Radish (setting [2]), 60%; in the test with cockspur grass (setting [3]), 0%; in the test with cockspur grass (setting [4]), 0%; with Cucumber (setting [5]), 60%; in the test with Cucumber (setting [6]) it was 90%. In addition, the inhibition at 100 µg/mL was determined as 0% with Wheat (setting [7]); 0% in the test on Wheat (setting [8]); 0% in the test with Sorghum (setting [9]); 0% with Sorghum (setting [10]); 90% in the test on rape (setting [11]); 90% with rape (setting [12]).

In the case of `CC(Oc1ccc(Cl)cc1)C(=O)OC(C)P1(=O)OCC(C)(C)CO1` (stereo not shown) [Compound 38, 2-(4-chlorophenoxyisopropylacyloxy)(methyl)methyl-5,5-dimethyl-1,3,2-dioxaphosphorinan-2-one phosphonate], the pest or weed control at 150 g/ha in the test with Eclipta prostrata is 60%; in the test with Amaranthus retroflexus it was 50%; in the test on Abutilon theophrasti it was 60%; in the test with Capsella bursa-pastoris, 70%. The inhibition at 100 µg/mL with Radish (setting [1]) is 70%; with Radish (setting [2]), 30%; with cockspur grass (setting [3]), 0%; in the test on cockspur grass (setting [4]), 0%; in the test with Cucumber (setting [5]), 60%; with Cucumber (setting [6]), 30%. In addition, the inhibition at 100 µg/mL came to 30% in the test on Wheat (setting [7]); 30% in the test on Wheat (setting [8]); 0% with Sorghum (setting [9]); 0% with Sorghum (setting [10]); 100% in the test with rape (setting [11]); 100% in the test with rape (setting [12]).

Consider `CC(Oc1ccc(Cl)cc1Cl)C(=O)OC(C)P1(=O)OCC(C)(C)CO1` (stereo not shown) [Compound 39, 2-(2,4-dichlorophenoxyisopropylacyloxy)(methyl)methyl-5,5-dimethyl-1,3,2-dioxaphosphorinan-2-one phosphonate], for which the pest or weed control at 150 g/ha with Eclipta prostrata stood at 60%; in the test with Amaranthus retroflexus it was 70%; with Abutilon theophrasti, 70%; in the test with Capsella bursa-pastoris, 80%. Also, the inhibition at 100 µg/mL in the test on Radish (setting [1]) was determined as 100%; in the test on Radish (setting [2]), 30%; in the test with cockspur grass (setting [3]), 0%; in the test on cockspur grass (setting [4]) it was 0%; in the test on Cucumber (setting [5]), 80%; in the test with Cucumber (setting [6]), 30%. For the same compound, the inhibition at 100 µg/mL with Wheat (setting [7]) came out at 60%; in the test on Wheat (setting [8]), 60%; in the test on Sorghum (setting [9]), 70%; in the test on Sorghum (setting [10]), 60%; in the test on rape (setting [11]), 100%; with rape (setting [12]) it was 40%.

Take `CC(Oc1ccc(F)cc1Cl)C(=O)OC(C)P1(=O)OCC(C)(C)CO1` (stereo not shown) [Compound 41, 2-(2-chloro-4-fluorphenoxyisopropylacyloxy)(methyl)methyl-5,5-dimethyl-1,3,2-dioxaphosphorinan-2-one phosphonate]: the pest or weed control at 150 g/ha came to 60% in the test on Eclipta prostrata, 60% with Amaranthus retroflexus, 70% with Abutilon theophrasti and 90% in the test with Capsella bursa-pastoris. Besides, in the test on Eclipta prostrata (in vivo), the “Weed clearing activity, Eclipta prostrata, Postemergence” value worked out at 60%. In addition, the inhibition at 100 µg/mL in the test on Radish (setting [1]) was determined as 80%; in the test with Radish (setting [2]), 60%; in the test on cockspur grass (setting [3]), 0%; in the test on cockspur grass (setting [4]), 0%; with Cucumber (setting [5]), 80%; in the test with Cucumber (setting [6]) it was 60%. Also, the inhibition at 100 µg/mL in the test on Wheat (setting [7]) came out at 70%; in the test with Wheat (setting [8]), 40%; in the test on Sorghum (setting [9]), 70%; in the test on Sorghum (setting [10]), 70%; with rape (setting [11]), 100%; in the test on rape (setting [12]) it was 90%.

For the compound `CC(Oc1ccc(F)cc1)C(=O)OC(C)P1(=O)OCC(C)(C)CO1` (stereo not shown) [Compound 44, 2-(4-fluorphenoxyisopropylacyloxy)(methyl)methyl-5,5-dimethyl-1,3,2-dioxaphosphorinan-2-one phosphonate], the pest or weed control at 150 g/ha with Eclipta prostrata stood at 60%; in the test on Amaranthus retroflexus, 50%; with Abutilon theophrasti, 60%; in the test on Capsella bursa-pastoris, 70%. The inhibition at 100 µg/mL turned out to be 80% in the test with Radish (setting [1]); 30% with Radish (setting [2]); 0% in the test with cockspur grass (setting [3]); 0% in the test on cockspur grass (setting [4]); 30% with Cucumber (setting [5]); 30% in the test on Cucumber (setting [6]). Further, the inhibition at 100 µg/mL with Wheat (setting [7]) came out at 0%; with Wheat (setting [8]), 0%; with Sorghum (setting [9]) it was 0%; in the test on Sorghum (setting [10]), 0%; with rape (setting [11]), 100%; in the test with rape (setting [12]) it was 30%.

For the compound `CC(OC(=O)COc1cccc(C(F)(F)F)c1)P1(=O)OCC(C)(C)CO1` (stereo not shown) [Compound 45, 2-(3-trifluormethylphenoxyethylacyloxy)(methyl)methyl-5,5-dimethyl-1,3,2-dioxaphosphorinan-2-one phosphonate], the pest or weed control at 150 g/ha with Eclipta prostrata is 50%; in the test with Amaranthus retroflexus, 50%; with Abutilon theophrasti, 75%; with Capsella bursa-pastoris, 85%. The inhibition at 100 µg/mL with Radish (setting [1]) was 90%; with Radish (setting [2]), 60%; in the test on cockspur grass (setting [3]) it was 0%; with cockspur grass (setting [4]), 0%; with Cucumber (setting [5]), 98%; in the test with Cucumber (setting [6]) it was 50%. For the same compound, the inhibition at 100 µg/mL came to 80% in the test on Wheat (setting [7]); 60% in the test on Wheat (setting [8]); 70% with Sorghum (setting [9]); 60% in the test on Sorghum (setting [10]); 85% with rape (setting [11]); 30% in the test with rape (setting [12]).
